From US20090023667A1 (priority 2005, published 2009)
Read-outs that look alike come from different tables or passages of the source.

Legend:
Type in all cases: in vivo
[1] = system: Pyricularia oryzae; assay: whole plant or invertebrate
[2] = system: Pyricularia oryzae; settings: rice blast, nursery box application of granule
[3] = system: Rhizoctonia solani; assay: Test Example 4: control test on paddy rice sheath blight, spraying
Experimental: A compound solution of a prescribed concentration was sprayed on three 1/5000a rice pots (cultivar: Koshihikari; 4 leaf stage). After one day from the spraying, Rhizoctonia solani cultured on a rice chaff/bran medium was inoculated on the basal of the rice plant. After 10 days from the inoculation, the extended lesion length of sheath blight of the whole stem was examined. The control value was calculated according to the following equation (3 replications).
(§1) Control Value=(1−average lesion length per a stem in the treated plot/average lesion length per a stem in the untreated plot)×100

[4] = system: Pyricularia oryzae
[5] = system: Rhizoctonia solani; assay: Test Example 6: control test on paddy rice sheath blight, nursery box application; settings: nursery box application of granule
Experimental: (§2) After 30 days from the treatment, Rhizoctonia solani cultured on a rice chaff/bran medium was inoculated on the basal of the rice plant. After 10 days from the inoculation, the extended lesion length of sheath blight of the whole stem was examined. The control value was calculated according to the following equation (3 replications).
as §1

[6] = system: Rhizoctonia solani; assay: Test Example 5: control test on paddy rice sheath blight, submerged application; settings: submerged application of granule
Experimental: as §2, with “14” for “30”
as §1

[7] = system: Pyricularia oryzae; remark: listed apart in the source
[8] = Pyricularia oryzae, 168 h, read-out: Control value
[9] = rice blast, sprayed at 60 ppm active ingredient, lesions after 7 days

CC(C)CC(C)c1sccc1NC(=O)c1cn(C)nc1C(F)(F)F (racemic) [Penthiopyrad, (RS)—N-[2-(1,3-dimethylbutyl)thiophene-3-yl]-1-methyl-3-trifluoromethyl-1H-pirazole-4-carboxamide, reference compound]
pest or weed control at 200 ppm [1, 8]: 95%

CSC(=O)c1cccc2nnsc12 [Acibenzolar-S-methyl]
Control value ([2]; 1 gai/box): 96

CO/C=C(/C(=O)OC)c1ccccc1Oc1cc(Oc2ccccc2C#N)ncn1 [Azoxystrobin, reference compound]
Control value ([3]; 80 ppm): 93

Cc1ccc(C(=O)NCC(NC(=O)OCCF)C(C)C)cc1 (stereo not drawn) [Compound 2]
Effect (class of control value) ([4]; in vivo): A (key: A: Not less than 80%; B: Not less than 50% to less than 80%; C: Less than 50%)

Cc1ccc(C(=O)NCC(NC(=O)OCCCl)C(C)C)cc1 (stereo not drawn) [Compound 3]
Effect (class of control value) ([4]; in vivo): A (key: A: Not less than 80%; B: Not less than 50% to less than 80%; C: Less than 50%)

Cc1ccc(C(=O)NCC(NC(=O)OCCBr)C(C)C)cc1 (stereo not drawn) [Compound 4]
Effect (class of control value) ([4]; in vivo): A (key: A: Not less than 80%; B: Not less than 50% to less than 80%; C: Less than 50%)

Cc1ccc(C(=O)NCC(NC(=O)OCCI)C(C)C)cc1 (stereo not drawn) [Compound 5]
Effect (class of control value) ([4]; in vivo): A (key: A: Not less than 80%; B: Not less than 50% to less than 80%; C: Less than 50%)

Cc1ccc(C(=O)NC(CNC(=O)OCC(Cl)(Cl)Cl)C(C)C)cc1 (stereo not drawn) [Compound 7, N-(2,2,2-trichloroethyloxycarbonyl)-N′-(4-methylbenzoyl)-3-methyl-1,2-butanediamine]
Effect (class of control value) [4, 9]: A (Not less than 80%)

Cc1ccc(C(=O)NC(CNC(=O)OC(C(F)(F)F)C(F)(F)F)C(C)C)cc1 (stereo not drawn) [Compound 8, N-(1,1,1,3,3,3-hexafluoro-2-propyloxycarbonyl)-N′-(4-methylbenzoyl)-3-methyl-1,2-butanediamine]
Effect (class of control value) [4, 9]: A (Not less than 80%)

Cc1ccc(C(=O)NCC(NC(=O)OC(CF)CF)C(C)C)cc1 (stereo not drawn) [Compound 9]
Effect (class of control value) ([4]; in vivo): A (key: A: Not less than 80%; B: Not less than 50% to less than 80%; C: Less than 50%)

Cc1ccc(C(=O)NCC(NC(=O)OCCCCl)C(C)C)cc1 (stereo not drawn) [Compound 10]
Effect (class of control value) ([4]; in vivo): A (key: A: Not less than 80%; B: Not less than 50% to less than 80%; C: Less than 50%)

Cc1ccc(C(=O)NCC(NC(=O)OC(CBr)CBr)C(C)C)cc1 (stereo not drawn) [Compound 11]
Effect (class of control value) ([4]; in vivo): B (key: A: Not less than 80%; B: Not less than 50% to less than 80%; C: Less than 50%)

Cc1ccc(C(=O)NCC(NC(=O)OCC(F)(F)C(F)(F)C(F)(F)F)C(C)C)cc1 (stereo not drawn) [Compound 13]
Effect (class of control value) ([4]; in vivo): A (key: A: Not less than 80%; B: Not less than 50% to less than 80%; C: Less than 50%)

Cc1ccc(C(=O)NCC(NC(=O)OCCC(F)(F)C(F)(F)C(F)(F)C(F)(F)F)C(C)C)cc1 (stereo not drawn) [Compound 14]
Effect (class of control value) ([4]; in vivo): B (key: A: Not less than 80%; B: Not less than 50% to less than 80%; C: Less than 50%)

Cc1ccc(C(=O)NCC(NC(=O)OC2CCCCC2F)C(C)C)cc1 (stereo not drawn) [Compound 16]
Effect (class of control value) ([4]; in vivo): A (key: A: Not less than 80%; B: Not less than 50% to less than 80%; C: Less than 50%)

Cc1ccc(C(=O)NCC(NC(=O)OCC(F)(F)F)C(C)(C)C)cc1 (stereo not drawn) [Compound 24]
Control value ([1]; 60 ppm): 97
Control value ([3]; 60 ppm): 2
Control value ([5]; 7.5 gai/box): 4
Effect (class of control value) ([4]; in vivo): A (key: A: Not less than 80%; B: Not less than 50% to less than 80%; C: Less than 50%)
Control value ([6]; 225 gai/10a): 4

CCC(C)C(CNC(=O)c1ccc(C)cc1)NC(=O)OCC(F)(F)F (stereo not drawn) [Compound 25]
Control value ([7]; in vivo): 95
Effect (class of control value) ([4]; in vivo): A (key: A: Not less than 80%; B: Not less than 50% to less than 80%; C: Less than 50%)
Control value ([6]; 225 gai/10a): 5

Cc1ccc(C(=O)NCC(NC(=O)OC(C)C(F)(F)F)C(C)C)cc1 (stereo not drawn) [Compound 30]
Control value ([7]; in vivo): 97
Effect (class of control value) ([4]; in vivo): A (key: A: Not less than 80%; B: Not less than 50% to less than 80%; C: Less than 50%)
Control value ([6]; 225 gai/10a): 7

CC(C)(C)C(CNC(=O)c1cc2ccccc2o1)NC(=O)OCC(F)(F)F (stereo not drawn) [Compound 31]
Control value ([1]; 60 ppm): 96
Control value ([3]; 60 ppm): 4
Control value ([5]; 7.5 gai/box): 2
Effect (class of control value) ([4]; in vivo): A (key: A: Not less than 80%; B: Not less than 50% to less than 80%; C: Less than 50%)
Control value ([6]; 225 gai/10a): 4

Cc1ccc(C(=O)NCC(NC(=O)OCC(F)(F)F)C2CCCC2)cc1 (stereo not drawn) [Compound 36]
Effect (class of control value) ([4]; in vivo): A (key: A: Not less than 80%; B: Not less than 50% to less than 80%; C: Less than 50%)

CC(C)C(CNC(=O)c1nc2ccc(F)cc2s1)NC(=O)OCC(F)(F)F (stereo not drawn) [Compound 37]
Control value ([1]; 60 ppm): 98
Control value ([3]; 60 ppm): 3
Effect (class of control value) ([4]; in vivo): A (key: A: Not less than 80%; B: Not less than 50% to less than 80%; C: Less than 50%)

CC(C)C(CNC(=O)c1nc2ccccc2s1)NC(=O)OCC(F)(F)F (stereo not drawn) [Compound 38]
Control value ([1]; 60 ppm): 96
Control value ([3]; 60 ppm): 3
Effect (class of control value) ([4]; in vivo): A (key: A: Not less than 80%; B: Not less than 50% to less than 80%; C: Less than 50%)

CCC(CC)C(CNC(=O)c1ccc(C)cc1)NC(=O)OCC(F)(F)F (stereo not drawn) [Compound 39]
Effect (class of control value) ([4]; in vivo): A (key: A: Not less than 80%; B: Not less than 50% to less than 80%; C: Less than 50%)

CC(CNC(=O)c1cc2ccccc2o1)NC(=O)OCC(F)(F)F (stereo not drawn) [Compound 40]
Control value ([1]; 60 ppm): 97
Control value ([3]; 60 ppm): 4
Effect (class of control value) ([4]; in vivo): A (key: A: Not less than 80%; B: Not less than 50% to less than 80%; C: Less than 50%)

N#Cc1ccccc1NC(=O)c1snc(Cl)c1Cl [Compound 104]
Control value ([2]; 1.5 gai/box): 98

CC(=O)Oc1c(C)c(C)nc2c(F)cc(C(C)(C)C)cc12 [Compound 105, reference compound]
pest or weed control at 300 ppm [1, 8]: 98%

C[C@@H](NC(=O)C(C#N)C(C)(C)C)c1ccc(Cl)cc1Cl (stereo partly drawn) [Diclocymet]
Control value ([2]; 1.5 gai/box): 97

Cc1c(Cl)cc(-c2ccc(=O)[nH]n2)cc1Cl [Diclomezine, reference compound]
Control value ([3]; 20 ppm): 95

CCOP(=O)(Sc1ccccc1)Sc1ccccc1 [EDDP, reference compound]
Control value ([1]; 300 ppm): 97

C/C(=N/Nc1nc(C)cc(C)n1)c1ccccc1C [Ferimzone, reference compound]
pest or weed control at 300 ppm [1, 8]: 98%

CC(C)Oc1cccc(NC(=O)c2ccccc2C(F)(F)F)c1 [Flutolanil, reference compound]
Control value ([3]; 250 ppm): 94
Control value ([6]; 210 gai/10a): 96

Cc1ccc(C(=O)NCC(NC(=O)Oc2ccc3ccccc3c2)C(C)C)cc1 (stereo not drawn) [Formula (16), reference compound]
Effect (class of control value) [4, 9]: C (Less than 50%)

CSCC(C)OC(=O)NC(CNC(=O)c1ccc(C)cc1)C(C)C (stereo not drawn) [Formula (17), reference compound]
Effect (class of control value) [4, 9]: C (Less than 50%)

O=C1OCc2c(Cl)c(Cl)c(Cl)c(Cl)c21 [Fthalide, reference compound]
pest or weed control at 300 ppm [1, 8]: 97%

Cc1nn(C)c(Cl)c1C(=O)Nc1cccc2c1C(C)OC2(C)C (stereo not drawn) [Furametpyr, reference compound]
Control value ([3]; 100 ppm): 95
Control value ([5]; 2 gai/box): 96
Control value ([6]; 45 gai/10a): 96

CC(C)OC(=O)C(C(=O)OC(C)C)=C1SCCS1 [Isoprothiolane, reference compound]
pest or weed control at 400 ppm [1, 8]: 98%

C[C@H]1O[C@H](O[C@H]2[C@H](O)[C@@H](O)[C@@H](O)[C@H](O)[C@@H]2O)[C@@H](N)C[C@@H]1NC(=N)C(=O)O [Kasugamycin, reference compound]
Control value ([1]; rice blast, spraying, 20 ppm): 97

Cc1ccccc1C(=O)Nc1cccc(OC(C)C)c1 [Mepronil, reference compound]
Control value ([3]; 750 ppm): 94

CNC(=O)/C(=N/OC)c1ccccc1Oc1ccccc1 [Metominostrobin, reference compound]
Control value ([7]; rice blast, submerged application of granule, 150 gai/10a): 98
Control value ([6]; 150 gai/10a): 95

O=C(Nc1ccccc1)N(Cc1ccc(Cl)cc1)C1CCCC1 [Pencycuron, reference compound]
Control value ([3]; 167 ppm): 95

C=CCOC1=NS(=O)(=O)c2ccccc21 [Probenazole]
Control value ([2]; 12 gai/box): 98

Cc1nc(C(F)(F)F)c(C(=O)Nc2c(Br)cc(OC(F)(F)F)cc2Br)s1 [Thifluzamide, reference compound]
Control value ([5]; 1 gai/box): 95
Control value ([6]; 60 gai/10a): 95

Cc1ccc(NC(=O)c2snnc2C)cc1Cl [Tiadinil]
Control value ([2]; 6 gai/box): 95

Cc1cccc2sc3nncn3c12 [Tricyclazole, reference compound]
pest or weed control at 200 ppm [1, 8]: 99%
Control value ([2]; 2 gai/box): 96

OCC1=C[C@H](N[C@H]2C[C@H](CO)[C@@H](O[C@@H]3O[C@H](CO)[C@@H](O)[C@H](O)[C@H]3O)[C@H](O)[C@H]2O)[C@H](O)[C@@H](O)[C@@H]1O [Validamycin, reference compound]
Control value ([3]; 60 ppm): 94
